Assay results taken from patent publication US12145947B2, “Pyrimidine based modulators and uses thereof” (Quanta Therapeutics, Inc., priority 2022, dated 2024).

What was measured:
[1] = target: T1, GST-tagged KRAS-G12D (2-169) (Homo sapiens, UniProt P01116, G12D); experiment: Nucleotide exchange assay (NEA), SOS-mediated, HTRF, KRAS G12D; format: biochemical; details: Table 4; IC50 extracted at 30 min
T1 construct: GST-tagged KRAS-G12D (2-169, Reaction Biology, MSC-11-539); purchased Reaction Biology MSC-11-539 (KRAS G12D); MSC-11-502 (SOS1cat)
T1 sequence (P01116 2-169 isoform P01116-2 G12D): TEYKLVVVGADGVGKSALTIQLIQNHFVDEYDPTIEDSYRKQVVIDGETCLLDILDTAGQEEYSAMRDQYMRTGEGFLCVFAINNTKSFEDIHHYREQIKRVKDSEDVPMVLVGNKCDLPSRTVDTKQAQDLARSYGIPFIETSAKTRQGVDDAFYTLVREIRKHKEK
Procedure, shortened: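 IC50 values come from 4-parameter fits at the 30 min time point of an SOS-driven exchange read by HTRF, normalised to DMSO (0%) and SOS-free blank (100%). Final reaction: 5 nM GST-KRAS-G12D (2-169), 20 nM SOScat, 150 nM fluorescent GTP-DY-647P1, after 1 h RT compound preincubation with KRAS and Tb-cryptate anti-GST.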

KRAS G12D/RAF1 = target: T2, KRAS G12D/RAF1 (Homo sapiens, UniProt P01116, G12D); experiment: Protein-protein interaction (PPI) HTRF assay KRAS G12D/RAF1; format: binding; details: Table 4
T2 construct: His6-MBP (N, cleaved yes); made in house; host or cells: E. coli
T2 sequence (P01116 with tags, fused parts or gaps isoform P01116-2 G12D): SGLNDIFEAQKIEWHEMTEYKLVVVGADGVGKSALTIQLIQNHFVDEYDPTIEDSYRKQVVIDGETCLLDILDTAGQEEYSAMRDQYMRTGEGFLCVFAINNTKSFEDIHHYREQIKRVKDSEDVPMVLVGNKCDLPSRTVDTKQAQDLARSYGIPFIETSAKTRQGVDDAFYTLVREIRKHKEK
Procedure, shortened: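 HTRF pairing of His-tagged RAF1 (52-131) plus Tb-cryptate donor with GppNHp-exchanged biotin-RAS (KRAS 1-169 wt/G12D/G12V, NRAS wt) plus streptavidin-d2 acceptor; compound sits 30 min with RAS first, then 1 h RT with RAF1. IC50 derived from 665/615 ratio, untagged RAF1 defining full inhibition.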

SMILES	IC50 [1] [µM]	IC50 (KRAS G12D/RAF1) [µM]
N#Cc1cnc(OCC2(CN3CCOCC3)CC2)nc1N1CC2(CCc3sc(N)c(C#N)c32)C1 [Compound 66, 2-amino-1′-[5-cyano-2-[[1-(morpholinomethyl)cyclopropyl]methoxy]pyrimidin-4-yl]spiro[5,6-dihydrocyclopenta[b]thiophene-4,3′-azetidine]-3-carbonitrile]	0.1 to 1	10 to 100
CC1Cn2nncc2CN1c1nc(OC[C@@]23CCCN2C[C@H](F)C3)nc(N2CC3(CCc4sc(N)c(C#N)c43)C2)c1C#N (stereo partly drawn) [Compound 67, 2-amino-1′-[5-cyano-6-(6-methyl-6,7-dihydro-4H-triazolo[1,5-a]pyrazin-5-yl)-2-[[(2R,8S)-2-fluoro-1,2,3,5,6,7-hexahydropyrrolizin-8-yl]methoxy]pyrimidin-4-yl]spiro[5,6-dihydrocyclopenta[b]thiophene-4,3′-azetidine]-3-carbonitrile]	0.1 to 1	10 to 100
N#Cc1c(N2C[C@H]3CC[C@@H](C2)N3)nc(OCC2(CN3CCOCC3)CC2(F)F)nc1N1CC2(CCc3sc(N)c(C#N)c32)C1 (stereo partly drawn) [Compound 68, 2-amino-1-[5-cyano-2-[[2,2-difluoro-1-(morpholinomethyl)cyclopropyl]methoxy]-6-[(1R,5S)-3,8-diazabicyclo[3.2.1]octan-3-yl]pyrimidin-4-yl]spiro[5,6-dihydrocyclopenta[b]thiophene-4,3′-azetidine]-3-carbonitrile]	< 0.01	1 to 10
N#Cc1c(N2C[C@H]3CC[C@@H](C2)N3)nc(OCC2(CN3CCSCC3)CC2)nc1N1CC2(CCc3sc(N)c(C#N)c32)C1 [Compound 72, 2-amino-1′-[5-cyano-6-[(1R,5S)-3,8-diazabicyclo[3.2.1]octan-3-yl]-2-[[1-(thiomorpholinomethyl)cyclopropyl]methoxy]pyrimidin-4-yl]spiro[5,6-dihydrocyclopenta[b]thiophene-4,3′-azetidine]-3-carbonitrile]	< 0.01	0.1 to 1
C[C@H]1COCCN1CC1(COc2nc(N3C[C@H]4CC[C@@H](C3)N4)c(C#N)c(N3CC4(CCc5sc(N)c(C#N)c54)C3)n2)CC1 [Compound 77, 2-amino-1′-[5-cyano-6-[(1R,5S)-3,8-diazabicyclo[3.2.1]octan-3-yl]-2-[[1-[[(3S)-3-methylmorpholin-4-yl]methyl]cyclopropyl]methoxy]pyrimidin-4-yl]spiro[5,6-dihydrocyclopenta[b]thiophene-4,3′-azetidine]-3-carbonitrile]	< 0.01	10 to 100
N#Cc1c(N2C[C@H]3CC[C@@H](C2)N3)nc(OCC2(CN3C[C@@H](F)[C@@H](F)C3)CC2)nc1N1CC2(CCc3sc(N)c(C#N)c32)C1 [Compound 78, 2-amino-1′-[5-cyano-6-[(1R,5S)-3,8-diazabicyclo[3.2.1]octan-3-yl]-2-[[1-[[(3S,4R)-3,4-difluoropyrrolidin-1-yl]methyl]cyclopropyl]methoxy]pyrimidin-4-yl]spiro[5,6-dihydrocyclopenta[b]thiophene-4,3′-azetidine]-3-carbonitrile]	0.01 to 0.1	> 100
C[C@@H]1COCCN1CC1(COc2nc(N3C[C@H]4CC[C@@H](C3)N4)c(C#N)c(N3CC4(CCc5sc(N)c(C#N)c54)C3)n2)CC1 [Compound 82, 2-amino-1′-[5-cyano-6-[(1R,5S)-3,8-diazabicyclo[3.2.1]octan-3-yl]-2-[[1-[[(3R)-3-methylmorpholin-4-yl]methyl]cyclopropyl]methoxy]pyrimidin-4-yl]spiro[5,6-dihydrocyclopenta[b]thiophene-4,3′-azetidine]-3-carbonitrile]	0.1 to 1	10 to 100
CN1CCC[C@H]1COc1nc(N2C[C@H]3CC[C@@H](C2)N3)c(C#N)c(N2CC3(CCc4sc(N)c(C#N)c43)C2)n1 [Compound 83, 2-amino-1′-[5-cyano-6-[(1R,5S)-3,8-diazabicyclo[3.2.1]octan-3-yl]-2-[[(2S)-1-methylpyrrolidin-2-yl]methoxy]pyrimidin-4-yl]spiro[5,6-dihydrocyclopenta[b]thiophene-4,3′-azetidine]-3-carbonitrile]	< 0.01	0.1 to 1
N#Cc1c(N2C[C@H]3CC[C@@H](C2)N3)nc(OCC2(c3ccccc3)CC2)nc1N1CC2(CCc3sc(N)c(C#N)c32)C1 [Compound 84, 2-amino-1′-[5-cyano-6-[(1R,5S)-3,8-diazabicyclo[3.2.1]octan-3-yl]-2-[(1-phenylcyclopropyl)methoxy]pyrimidin-4-yl]spiro[5,6-dihydrocyclopenta[b]thiophene-4,3′-azetidine]-3-carbonitrile]	< 0.01	0.1 to 1
N#Cc1c(N2C[C@H]3CC[C@@H](C2)N3)nc(OCc2[nH]ncc2F)nc1N1CC2(CCc3sc(N)c(C#N)c32)C1 [Compound 90, 2-amino-1′-[5-cyano-6-[(1R,5S)-3,8-diazabicyclo[3.2.1]octan-3-yl]-2-[(4-fluoro-1H-pyrazol-5-yl)methoxy]pyrimidin-4-yl]spiro[5,6-dihydrocyclopenta[b]thiophene-4,3′-azetidine]-3-carbonitrile]	0.01 to 0.1	10 to 100
N#Cc1c(N2C[C@H]3CC[C@@H](C2)N3)nc(OCC2(CN3CCS(=O)(=O)CC3)CC2)nc1N1CC2(CCc3sc(N)c(C#N)c32)C1 [Compound 95, 2-amino-1′-[5-cyano-6-[(1R,5S)-3,8-diazabicyclo[3.2.1]octan-3-yl]-2-[[1-[(1,1-dioxo-1,4-thiazinan-4-yl)methyl]cyclopropyl]methoxy]pyrimidin-4-yl]spiro[5,6-dihydrocyclopenta[b]thiophene-4,3′-azetidine]-3-carbonitrile]	< 0.01	1 to 10
N#Cc1c(N2C[C@H]3CC[C@@H](C2)N3)nc(OCc2n[nH]cc2Br)nc1N1CC2(CCc3sc(N)c(C#N)c32)C1 [Compound 102, 2-amino-1′-[2-[(4-bromo-1H-pyrazol-3-yl)methoxy]-5-cyano-6-[(1S,5R)-3,8-diazabicyclo[3.2.1]octan-3-yl]pyrimidin-4-yl]spiro[5,6-dihydrocyclopenta[b]thiophene-4,3′-azetidine]-3-carbonitrile]	< 0.01	10 to 100
N#Cc1c(N2C[C@H]3CC[C@@H](C2)N3)nc(OCc2cn[nH]n2)nc1N1CC2(CCc3sc(N)c(C#N)c32)C1 [Compound 103, 2-amino-1′-[5-cyano-6-[(1R,5S)-3,8-diazabicyclo[3.2.1]octan-3-yl]-2-(2H-triazol-4-ylmethoxy)pyrimidin-4-yl]spiro[5,6-dihydrocyclopenta[b]thiophene-4,3′-azetidine]-3-carbonitrile]	0.01 to 0.1	10 to 100
N#Cc1c(N2C[C@H]3CC[C@@H](C2)N3)nc(OCc2n[nH]cc2Cl)nc1N1CC2(CCc3sc(N)c(C#N)c32)C1 [Compound 104, 2-amino-1′-[2-[(4-chloro-1H-pyrazol-3-yl)methoxy]-5-cyano-6-[(1R,5S)-3,8-diazabicyclo[3.2.1]octan-3-yl]pyrimidin-4-yl]spiro[5,6-dihydrocyclopenta[b]thiophene-4,3′-azetidine]-3-carbonitrile]	< 0.01	10 to 100
N#Cc1c(N2C[C@H]3CC[C@@H](C2)N3)nc(OCc2cc(Cl)[nH]n2)nc1N1CC2(CCc3sc(N)c(C#N)c32)C1 [Compound 105, 2-amino-1′-[2-[(5-chloro-1H-pyrazol-3-yl)methoxy]-5-cyano-6-[(1R,5S)-3,8-diazabicyclo[3.2.1]octan-3-yl]pyrimidin-4-yl]spiro[5,6-dihydrocyclopenta[b]thiophene-4,3′-azetidine]-3-carbonitrile]	< 0.01	10 to 100
N#Cc1c(N2C[C@H]3CC[C@@H](C2)N3)nc(OCc2n[nH]cc2C(F)(F)F)nc1N1CC2(CCc3sc(N)c(C#N)c32)C1 [Compound 106, 2-amino-1′-[5-cyano-6-[(1R,5S)-3,8-diazabicyclo[3.2.1]octan-3-yl]-2-[[4-(trifluoromethyl)-1H-pyrazol-3-yl]methoxy]pyrimidin-4-yl]spiro[5,6-dihydrocyclopenta[b]thiophene-4,3′-azetidine]-3-carbonitrile]	0.01 to 0.1	10 to 100
Cc1nc(COc2nc(N3C[C@H]4CC[C@@H](C3)N4)c(C#N)c(N3CC4(CCc5sc(N)c(C#N)c54)C3)n2)n[nH]1 [Compound 107, 2-amino-1′-[5-cyano-6-[(1R,5S)-3,8-diazabicyclo[3.2.1]octan-3-yl]-2-[(5-methyl-1H-1,2,4-triazol-3-yl)methoxy]pyrimidin-4-yl]spiro[5,6-dihydrocyclopenta[b]thiophene-4,3′-azetidine]-3-carbonitrile]	0.01 to 0.1	10 to 100
